In US7109341B2, “Therapeutic amides” (Wayne State University, priority 2002, dated 2006):
Values joined by “and” are separate entries in the source; they are usually repeats but may differ in a detail not shown here. Equal values may be shown once. Read-outs that look alike come from different tables or passages of the source.

Tests used:
[1] = system: Pancreatic Ductal Adenocarcinoma 03; experiment: Evaluation against early stage Pancreatic Ductal Adenocarcinoma 03 in female BDF1 mice (Table 4); type: in vivo, mouse
Source text: The higher dose requirement for compound 14e may be a disadvantage over compound 11b (Cage 14).

[2] = system: Human Melanoma LOX; conditions: IV, qd 1–6, BID 7, total 700 mg/kg
[3] = system: Pancreatic Adenocarcinoma 03; experiment: Evaluation against early stage Pancreatic Adenocarcinoma 03 in BDF1 male mice (Table 1); type: in vivo, mouse; conditions: PO, QD3–6, 9–11, BID 7–8
[4] = system: Mammary Adenocarcinoma 17/ADR; experiment: Evaluation against early stage Mammary Adenocarcinoma 17/ADR, C3H/He females (Table 3); type: in vivo; conditions: for % Body Wt Loss at Nadir / % T/C mass / Day of Nadir / Drug Deaths / Growth Delay / Log Kill / Median Tumor Mass on Day 9 (Range) / Tumor Free day-21 / Activity Rating: PO
[5] = system: Mammary Adenocarcinoma 16/C; conditions: Cage 2, IV, BID 1–5, total 600 mg/kg
Source text: Table 7. […] The animal was then re-implanted with Mam16/C/71.

[6] = system: Mammary Adenocarcinoma 16/C; conditions: IV
Source text: (§1) Pancreatic ductal adenocarcinoma-03, mammary adenocarcinoma-16/C, mammary adenocarcinoma-17/Adr, and human melanoma LOX were used in the studies. Tumors were maintained in the mouse strain of origin (C57B1/6 for Panc-03 and C3H for the mammary tumors). Balb/c SCID mice (B and T cell deficient) were used for tumor maintenance and chemotherapy trials involving the human melanoma LOX. Tumors were transplanted into the appropriate F1 hybrid (B6D2F1=C57B 1/6 female× DBA/2 male) or the strain of origin for the chemotherapy trials. Individual mouse body weights for each experiment were within 5 grams, and all mice were over 17 grams at the start of therapy. The mice were supplied food and water ad libitum.
(§2) Animals were pooled, implanted subcutaneously with 30 to 60 mg tumor fragments by a 12 gauge trocar on day 0, and again pooled before unselective distribution to the various treatment and control groups. For early stage treatment, chemotherapy was started within 1 to 3 days after tumor implantation while the number of cells was relatively small (10^7 to 10^8 cells). For upstaged or advanced staged trials, the tumors were allowed to grow for five or more days before treatment was started. Tumors were measured with a caliper twice weekly. […] Tumor weights are estimated from two-dimensional measurements:
(§3) Tumor weight (in mg)=(a×b^2)/2, where a and b are the tumor length and width in (mm), respectively.
a) Tumor growth delay (T−C value), where T is the median time (in days) required for the treatment group tumors to reach a predetermined size (e.g., 1,000 mg), and C is the median time (in days) for the control group tumors to reach the same size. Tumor-free survivors were are excluded from these calculations (cures are tabulated separately).
(§4) b) Calculation of tumor cell kill for subcutaneously (SC) growing tumors. […] The conversion of the T−C values to log10 cell kill is possible because the Td of tumors re-growing post treatment (Rx) approximates the Td values of the tumors in untreated control mice.
It should be noted that an activity rating of +++ to ++++ is needed to effect partial regression (PR) or complete regression (CR) of 100 to 300 mg size masses of most transplanted solid tumors of mice. Thus, an activity rating of + or ++ would not be scored as active by usual clinical criteria. A PR is a reduction in tumor mass to less than 50% of pretreatment size. A CR is a reduction in tumor mass to below palpable size (i.e., reduction to zero detectable mass).
(§5) The T/C value in percent is an indication of anti-tumor effectiveness: A T/C=0% means no tumor growth. A T/C=100% means no anti-tumor activity, i.e., the treated and control tumors grew equally. […] A T/C value<10% is considered to indicate highly significant anti-tumor activity, and is the level used by NCI to justify a clinical trial if toxicity, formulation, and certain other requirements are met (termed DN-2 level activity).
(§6) Compounds as their sodium salts were prepared in a 1% sodium bicarbonate solution, H2O or phosphate buffered saline (PBS), with pH adjusted to 7.0 to 7.5 with HCl, and administered intravenously (IV) or orally (PO), at injection volumes of 0.2 mL per injection.

[7] = system: Pancreatic Ductal Adenocarcinoma #03
Source text: as §1, §2, §3
a) Tumor growth delay (T−C value), where T is the median time (in days) required for the treatment group tumors to reach a predetermined size (e.g., 1,000 mg), and C is the median time (in days) for the control group tumors to reach the same size. Tumor-free survivors were are excluded from these calculations (cures are tabulated separately). This value is an important criterion of anti-tumor effectiveness because it allows the quantification of tumor cell kill.
as §4
In selected cases, both for historic in vivo evaluation data as well as data presented here, it is of value to compare log kill numbers from trials of markedly different testing schedules. […] It should be noted that an activity rating of +++ to ++++ is needed to effect partial regression (PR) or complete regression (CR) of 100 to 300 mg size masses of most transplanted solid tumors of mice. Thus, an activity rating of + or ++ would not be scored as active by usual clinical criteria. A PR is a reduction in tumor mass to less than 50% of pretreatment size. A CR is a reduction in tumor mass to below palpable size (i.e., reduction to zero detectable mass).
as §5, §6

[8] = Cage 14, IV, 48 mg/kg/inj QD 3–9, total 336 mg/kg
[9] = IV, short, dose-intense schedule BID-1–3, 162 mg/kg total dose
[10] = Cage 5, 145 mg/kg/inj QD-1–3 and 7–9, total 870 mg/kg
[11] = Cage 6, 90 mg/kg/inj QD-1–3 and 7–9, total 540 mg/kg
[12] = Cage 7, 55.8 mg/kg/inj QD-1–3 and 7–9, total 334.8 mg/kg
[13] = Cage 8, 34.6 mg/kg/inj QD-1–3, 145 mg/kg/inj QD-7–9, total 538.8 mg/kg
[14] = Cage 4, d1, 3–5, 7, 9, 11, 13, 15, total 1610 mg/kg
[15] = Cage 5, d1, 3–7, 9, total 665 mg/kg
[16] = Cage 3, IV-SC, qd 3–5, 8–11, BID 6, 7, total 780 mg/kg
[17] = Cage 4, IV-SC, qd 3–5, 8–11, BID 6, 7, total 390 mg/kg
[18] = Cage 5, IV, qd 3, 4, total 30 mg/kg
[19] = Cage 2, PO, 120 mg/kg/inj 2×/day days 3–9, total 1680 mg/kg
[20] = Cage 3, PO, 60 mg/kg/inj 2×/day days 3–9, total 840 mg/kg
[21] = Cage 4, PO, 30 mg/kg/inj 2×/day days 3–9, total 420 mg/kg

CC(Oc1ccc(Oc2ccc3ccc(Cl)cc3n2)cc1)C(=O)O (centres unmarked) [Compound 11b]
% Body Wt Loss at Nadir [1, 8]: −8.9%
% T/C mass [1, 8]: 0%
Activity Rating [1, 8]: +++ (2.0–2.8)
Day of Nadir [1, 8]: 11 days
Drug Deaths [1, 8]: 0/5
Growth Delay [1, 8]: 17.5 days
Log Kill [1, 8]: 2.6
Median Tumor Mass on Day 14 (Range) [1, 8]: 0
Tumor Free day-37 [1, 8]: 0/5
day of full body weight recovery [1, 8]: ~15 days

CC(Oc1ccc(Oc2cnc3ccc(Cl)cc3n2)cc1)C(=O)NCCS(=O)(=O)[O-].[Na+] [Compound 14f (S)]
Comments (activity rating) ([2]; Cage 3): Inactive
Drug Death (day of death) ([2]; Cage 3): 0/5
Log Cell Kill ([2]; Cage 3): 0.3
Median Tumor Burden in mg on d 9 (range) ([2]; Cage 3): 994 mg
T-C ([2]; Cage 3): 1.0 days
T/C % ([2]; Cage 3): 71%
Time to 1000 mg days (range) ([2]; Cage 3): 9.0 days
Tumor Free on d 18 ([2]; Cage 3): 0/5

CC(Oc1ccc(Oc2cnc3ccc(Cl)cc3n2)cc1)C(N)=O (centres unmarked) [Compound 14a]
Day of Wt. Loss Nadir ([3]; Cage 5, total 1,320 mg/kg): 8 days
Drug Deaths (days of death) ([3]; Cage 5, total 1,320 mg/kg): 0/5
Log Kill ([3]; Cage 5, total 1,320 mg/kg): 1.9
Mean Body Wt. Loss in g/mouse ([3]; Cage 5, total 1,320 mg/kg): −0.8 g/mouse
Median tumor burden in mg on day 14 (range) ([3]; Cage 5, total 1,320 mg/kg): 126 mg
Percent Body Wt. Loss ([3]; Cage 5, total 1,320 mg/kg): −3.6%
T-C ([3]; Cage 5, total 1,320 mg/kg): 12 days
T/C % ([3]; Cage 5, total 1,320 mg/kg): 7.3%
Time to 1000 mg days (range) ([3]; Cage 5, total 1,320 mg/kg): 23 days
Tumor Free on day 21 ([3]; Cage 5, total 1,320 mg/kg): 0/5
toxicity observations ([3]; Cage 5, total 1,320 mg/kg): Toxicity was not reached
Day of Wt. Loss Nadir ([3]; Cage 6, total 660 mg/kg): 5 days
Drug Deaths (days of death) ([3]; Cage 6, total 660 mg/kg): 0/5
Log Kill ([3]; Cage 6, total 660 mg/kg): 0.7
Mean Body Wt. Loss in g/mouse ([3]; Cage 6, total 660 mg/kg): −0.4 g/mouse
Median tumor burden in mg on day 14 (range) ([3]; Cage 6, total 660 mg/kg): 695 mg
Percent Body Wt. Loss ([3]; Cage 6, total 660 mg/kg): −1.8%
T-C ([3]; Cage 6, total 660 mg/kg): 4.5 days
T/C % ([3]; Cage 6, total 660 mg/kg): 40%
Time to 1000 mg days (range) ([3]; Cage 6, total 660 mg/kg): 15.5 days
Tumor Free on day 21 ([3]; Cage 6, total 660 mg/kg): 0/5
Day of Wt. Loss Nadir ([3]; Cage 7, total 330 mg/kg): 6 days
Drug Deaths (days of death) ([3]; Cage 7, total 330 mg/kg): no lethality and 0/5
Log Kill ([3]; Cage 7, total 330 mg/kg): 0.3
Median tumor burden in mg on day 14 (range) ([3]; Cage 7, total 330 mg/kg): 1273 mg
T-C ([3]; Cage 7, total 330 mg/kg): 2 days
T/C % ([3]; Cage 7, total 330 mg/kg): 74%
Time to 1000 mg days (range) ([3]; Cage 7, total 330 mg/kg): 13 days
Tumor Free on day 21 ([3]; Cage 7, total 330 mg/kg): 0/5

COc1c(Cl)ccc2ccc(Oc3ccc(OC(C)C(=O)O)cc3)nc12 (centres unmarked) [Compound 13a, reference compound]
T/C [4, 9]: 7%
log kill [4, 9]: 1.5

CC(Oc1ccc(Oc2ccc3ccc(Br)cc3n2)cc1)C(=O)NCCS(=O)(=O)[O-].[Na+] (centres unmarked) [Compound 14g, Sodium (2-(4-(7-bromo-2-quinolinyl)oxy)phenoxy)propionylamino ethanesulfonate]
Day of Wt. Loss Nadir [5]: 4 days
Drug Death (day of death) [5]: 0/6
Log Cell Kill [5]: 0.9
Mean Body Wt. Loss in g/mouse [5]: −2.3 g/mouse
Median Tumor Burden in mg on d 9 (range) [5]: 230 mg
T-C [5]: 3.5 days
T/C % [5]: 14%
Time to 1,000 mg in days (range) [5]: 11.5 days
day of full body weight recovery [5]: ≤ 10 days
Percent Body Weight Loss ([5]; listed as 14g (Racemic)): −11.0%
Tumor Free on d 161 ([5]; listed as 14g (Racemic)): 1/6
Comments (activity rating) ([5]; listed as 14g Racemic): + (0.7–1.2)
Percent Body Weight Loss ([5]; listed as 14g Racemic): 11%
Tumor Free on d 161 ([5]; listed as 14g Racemic): One animal remained tumor free
Percent Body Weight Loss ([5]; listed as 14g racemic): −11%
Tumor Free on d 161 ([5]; listed as 14g racemic): ⅕

COc1c(Cl)ccc2ncc(Oc3ccc(OC(C)C(=O)N(C)C)cc3)nc12 (centres unmarked) [Compound 14c]
% Body Wt Loss at Nadir [4, 10]: −5.8%
% T/C mass [4, 10]: 20%
Day of Nadir [4, 10]: 9 days
Drug Deaths [4, 10]: 0/5
Growth Delay [4, 10]: 5.5 days
Log Kill [4, 10]: 1.5
Median Tumor Mass on Day 9 (Range) [4, 10]: 243
Tumor Free day-21 [4, 10]: 0/5
% Body Wt Loss at Nadir [4, 11]: +1.4%
% T/C mass [4, 11]: 31%
Activity Rating [4, 11]: ++ (1.3–1.9)
Day of Nadir [4, 11]: 9 days
Drug Deaths [4, 11]: 0/5
Growth Delay [4, 11]: 5.0 days
Log Kill [4, 11]: 1.4
Median Tumor Mass on Day 9 (Range) [4, 11]: 369
Tumor Free day-21 [4, 11]: 0/5
% Body Wt Loss at Nadir [4, 12]: +0.0%
% T/C mass [4, 12]: 31%
Activity Rating [4, 12]: + (0.7–1.2)
Day of Nadir [4, 12]: 9 days
Drug Deaths [4, 12]: 0/5
Growth Delay [4, 12]: 3.5 days
Log Kill [4, 12]: 1.0
Median Tumor Mass on Day 9 (Range) [4, 12]: 368
Tumor Free day-21 [4, 12]: 0/5
% Body Wt Loss at Nadir [4, 13]: −1.4%
% T/C mass [4, 13]: 55%
Activity Rating [4, 13]: + (0.7–1.2)
Day of Nadir [4, 13]: 11 days
Drug Deaths [4, 13]: 0/5
Growth Delay [4, 13]: 3.3 days
Log Kill [4, 13]: 0.9
Median Tumor Mass on Day 9 (Range) [4, 13]: 660
Tumor Free day-21 [4, 13]: 0/5

CC(Oc1ccc(Oc2cnc3ccc(Cl)cc3n2)cc1)C(=O)NCCS(=O)(=O)[O-].[Na+] [Compound 14f (R)]
Comments (activity rating) ([2]; Cage 2): (+) (0.7–1.2)
Drug Death (day of death) ([2]; Cage 2): no drug deaths and 0/5
Log Cell Kill ([2]; Cage 2): 0.8
Median Tumor Burden in mg on d 9 (range) ([2]; Cage 2): 651 mg
T-C ([2]; Cage 2): 3.0 days
T/C % ([2]; Cage 2): 47%
Time to 1000 mg days (range) ([2]; Cage 2): 11.0 days
Tumor Free on d 18 ([2]; Cage 2): 0/5
Day of Wt. Loss Nadir [6, 14]: 14 days
Drug Death (day of death) [6, 14]: 0/5
Log Cell Kill [6, 14]: 4.2
Mean Body Wt. Loss in g/mouse [6, 14]: −0.8 g/mouse
Median Tumor Burden in mg on day 7 (range) [6, 14]: 0 mg
Percent Body Weight Loss [6, 14]: −3.0%
T-C [6, 14]: 14 days
T/C % [6, 14]: 0%
Time to 1000 mg in days (range) [6, 14]: 20 days
Tumor Free on d28 [6, 14]: no cures and 0/5
day of full body weight recovery [6, 14]: ≤ 16 days
Day of Wt. Loss Nadir [6, 15]: 5 days
Drug Death (day of death) [6, 15]: 0/5
Log Cell Kill [6, 15]: 1.8
Mean Body Wt. Loss in g/mouse [6, 15]: −0.8 g/mouse
Median Tumor Burden in mg on day 7 (range) [6, 15]: 260 mg
Percent Body Weight Loss [6, 15]: −2.9%
T-C [6, 15]: 6 days
T/C % [6, 15]: 14%
Time to 1000 mg in days (range) [6, 15]: 12 days
Tumor Free on d28 [6, 15]: 0/5

CC(Oc1ccc(Oc2cnc3ccc(Cl)cc3n2)cc1)C(=O)NCCS(=O)(=O)[O-].[Na+] (centres unmarked) [Compound 14f, Sodium (2-(4-(7-chloro-2-quinoxalinyl)oxy)phenoxy)propionylamino ethanesulfonate]
Drug Death (day of death) [7, 16]: 0/5
Log Cell Kill [7, 16]: 1.67
Median Tumor Burden in mg on d17 (range) [7, 16]: 126 mg
T-C [7, 16]: 10.0 days
T/C % [7, 16]: 10%
Time to 1000 mg in days (range) [7, 16]: 26 days
Tumor Free on d35 [7, 16]: 0/5
Comments (activity rating) [7, 17]: Inactive
Drug Death (day of death) [7, 17]: 0/5
Log Cell Kill [7, 17]: 0.58
Median Tumor Burden in mg on d17 (range) [7, 17]: 600 mg
T-C [7, 17]: 3.5 days
T/C % [7, 17]: 50%
Time to 1000 mg in days (range) [7, 17]: 19.5 days
Tumor Free on d35 [7, 17]: 0/5
Comments (activity rating) [7, 18]: Inactive
Drug Death (day of death) [7, 18]: 0/5
Log Cell Kill [7, 18]: 0.0
Median Tumor Burden in mg on d17 (range) [7, 18]: 1420 mg
T-C [7, 18]: 0.0 days
T/C % [7, 18]: >100%
Time to 1000 mg in days (range) [7, 18]: 16 days
Tumor Free on d35 [7, 18]: 0/5
Day of Wt. Loss Nadir ([7]; mouse, in vivo): 11 days

CC(Oc1ccc(Oc2ccc3ccc(Cl)cc3n2)cc1)C(=O)N(C)C (centres unmarked) [Compound 14e, 2-{4-((7-Chloro-2-quinolinyl)oxy)phenoxy}propiondimethylamide]
% Body Wt Loss at Nadir [1, 19]: +4.3%
% T/C mass [1, 19]: 8.3%
Day of Nadir [1, 19]: 9 days
Drug Deaths [1, 19]: 0/5
Growth Delay [1, 19]: 16.5 days
Log Kill [1, 19]: 2.5
Median Tumor Mass on Day 14 (Range) [1, 19]: 126
Tumor Free day-37 [1, 19]: 0/5
toxicity observations [1, 19]: no evident toxicity
% Body Wt Loss at Nadir [1, 20]: +3.3%
% T/C mass [1, 20]: 15%
Activity Rating [1, 20]: +++ (2.0–2.8)
Day of Nadir [1, 20]: 10 days
Drug Deaths [1, 20]: 0/5
Growth Delay [1, 20]: 14.5 days
Log Kill [1, 20]: 2.2
Median Tumor Mass on Day 14 (Range) [1, 20]: 234
Tumor Free day-37 [1, 20]: 0/5
% Body Wt Loss at Nadir [1, 21]: 0%
% T/C mass [1, 21]: 37%
Day of Nadir [1, 21]: 9 days
Drug Deaths [1, 21]: 0/5
Growth Delay [1, 21]: 3.5 days
Log Kill [1, 21]: 0.5
Median Tumor Mass on Day 14 (Range) [1, 21]: 567
Tumor Free day-37 [1, 21]: 0/5
